Data reported in US20220053773A1 (priority 2018, published 2022).
Converted amounts (≈) assume the structure as drawn. Read-outs that look alike come from different tables or passages of the source. Bridge positions count the residues as written; N and C are the ends. Ends that are not written are not given here. Peptide text beside a SMILES is read from it.

Key:
[1] = test system: E. coli ATCC 25922; details: for MIC-E. coli (μM) 25922: Table 6; for MIC-E.Coli (μM) 25622: Table 9 lower part, c1
[2] = test system: P11-resistant E. coli ATCC 25922
[3] = test system: P11-resistant E. coli BL21
[4] = test system: X. fastidiosa (PD strain)
[5] = test system: X. fastidiosa (Xf) in infected grapevines; details: in vivo
[6] = test system: Salmonella; details: for MIC-human (μm) Salmonella: Table 9 lower part, c4
[7] = test system: Pseudomonas WT 27853; details: for MIC-human (μm) Pseudomonas WT 27853: Table 9 lower part, c5
[8] = test system: Pseudomonas Resistant BAA-2114
[9] = test system: Xanthomonas Perforans BAA983
[10] = test system: Xanthomonas Euvesicatoria 11633
[11] = test system: E.Coli 14028; details: Table 9 lower part, c2
[12] = test system: human erythrocytes
[13] = test system: HL60 cells
[14] = test system: N. benthamiana mesophyll protoplasts
[15] = test system: E. coli K12; details: Table 3, K12-WT
[16] = test system: P11-resistant E. coli K12; details: Table 3, K12-R
[17] = test system: E. coli BL21; details: Table 3, BL21-WT
[18] = test system: human and plant gram-negative bacteria
[19] = test system: human cells (red blood cells, immune cells HL-60, lung/skin epithelial cells)

## RKQLRELIERLLERIRKLGPGRREQLERLIERLERLIEKR [Peptide 40P3]
[1]
  MIC-E. coli (μM) 25922: >20 µM

## LIRLIRRILRRGPGRRRLIRRILRIL [Peptide 26P-1]
[2]
  MIC values ATCC: 10 µM
[3]; BL21
  MIC values BL21: 4 µM
[4]
  MIC (μM) X. fastidiosa (PD strain): 4.75 µM

## EALRSRLEKRIYILYRDTPVVKSSSRQREELLRISLRELE [Peptide 40P1]
[1]
  MIC-E. coli (μM) 25922: >20 µM

## CC[C@H](C)[C@H](NC(=O)[C@H](CCCCN)NC(=O)[C@H](CC(C)C)NC(=O)[C@@H](NC(=O)[C@H](CCCCN)NC(=O)[C@H](CCCCN)NC(=O)[C@@H](NC(=O)[C@H](CC(C)C)NC(=O)[C@H](CCCCN)NC(=O)[C@@H](N)CCCCN)[C@@H](C)CC)[C@@H](C)CC)C(=O)N[C@@H](CC(C)C)C(=O)NC [Peptide 11P3, KKLIKKILKIL-(NHCH3)] (H-KKLIKKILKIL-NHMe)
[1]
  MIC-E. coli (μM) 25922: 3.7 ± 0.5 µM (≈ 5 µg/mL)

## KLIKLIKKILKKGPGRKKLIKKILKILK [Peptide 28P4]
[5]
  % Xf clearance from bark by qPCR: completely clear
  % Xf clearance from green leaves by qPCR: completely clear
[1]
  MIC-E. coli (μM) 25922: 2.1 µM
  MIC-E.Coli (μM) 25622: 2.1 µM
[4]
  MIC (μM) X. fastidiosa (PD strain): 3.0 ± 0.1 µM
[6]
  MIC-human (μm) Salmonella: 1.3 µM
[7]
  MIC-human (μm) Pseudomonas WT 27853: 1.3 µM
[8]
  MIC-human (μm) Pseudomonas Resistant BAA-2114: 2.5 µM
[9]
  MIC-plant (μm) Xanthomonas Perforans BAA983: 2.5 µM
[10]
  MIC-plant (μm) Xanthomonas Euvesicatoria 11633: 2.5 µM

## KKLIKKILKIL [Peptide P11, KKLIKKILKIL]
[2]
  MIC: 192 ± 8.3 µM
  MIC values ATCC: 200 µM
[3]
  MIC: 194 ± 12.5 µM
[3]; BL21
  MIC values BL21: 194 µM
[4]
  MIC (μM) X. fastidiosa (PD strain): 10 to 20 µM

## CC[C@H](C)[C@@H]1NC(=O)[C@H](CCCCN)NC(=O)[C@H](CC(C)C)NC(=O)[C@H]([C@@H](C)CC)NC(=O)[C@H](CCCCN)NC(=O)[C@H](CCCCN)NC(=O)[C@H]([C@@H](C)CC)NC(=O)[C@H](CC(C)C)NC(=O)[C@H](CCCCN)NC(=O)[C@H](CCCCN)NC(=O)[C@H](CCCNC(=N)N)NC(=O)CNC(=O)[C@@H]2CCCN2C(=O)CNC(=O)[C@H](CCCCN)NC(=O)[C@H](CCCCN)NC(=O)[C@H](CC(C)C)NC(=O)[C@H]([C@@H](C)CC)NC(=O)[C@H](CCCCN)NC(=O)[C@H](CCCCN)NC(=O)[C@H]([C@@H](C)CC)NC(=O)[C@H](CC(C)C)NC(=O)[C@H](CCCCN)NC(=O)[C@H]([C@@H](C)CC)NC(=O)[C@H](CC(C)C)NC(=O)[C@H](CCCNC(=N)N)NC(=O)CNC(=O)[C@@H]2CCCN2C(=O)CNC(=O)[C@H](CC(C)C)NC1=O [CYCLIC30P] (cyclo(GPGRKKLIKKILKILGPGRLIKLIKKILKK))
[1]
  MIC-E. coli (μM) 25922: 12 (2) μM
  MIC-E.Coli (μM) 25622: 12(2) μM

## LIRLLRRILRRGPGRRRLIRRLLRIL [Peptide 26P3]
[4]
  MIC-plant bacteria (μM) Xylela fastidiosa (grape): 4.8 µM

## KRLIQRKRLIQRGPGRKRLIQRKRLIQR [Peptide 28P3]
[1]
  MIC-E. coli (μM) 25922: >40 µM
  MIC-E.Coli (μM) 25622: >40 µM
[6]
  MIC-human (μm) Salmonella: >20 µM
[7]
  MIC-human (μm) Pseudomonas WT 27853: >20 µM
[8]
  MIC-human (μm) Pseudomonas Resistant BAA-2114: >20 µM
[9]
  MIC-plant (μm) Xanthomonas Perforans BAA983: 20 µM
[10]
  MIC-plant (μm) Xanthomonas Euvesicatoria 11633: 20 µM

## KLIRLIREILRRGPGRRRLIREILRILK [Peptide 28P6]
[1]
  MIC-E. coli (μM) 25922: 4.8 µM
  MIC-E.Coli (μM) 25622: 4.8 µM
[4]
  MIC-plant (μm) Xylela fastidiosa (grape): 2.5-5(2) μM
[11]
  MIC-E.Coli (μM) 14028: 20 µM
[7]
  MIC-human (μm) Pseudomonas WT 27853: 5 to 10 µM

## KEIVRRIKEFLRGPGRKEIVRRIKEFLR [Peptide 28P7]
[1]
  MIC-E. coli (μM) 25922: 4.3 µM
  MIC-E.Coli (μM) 25622: 4.3 µM
[4]
  MIC-plant (μm) Xylela fastidiosa (grape): 2.5-5(2) μM
[11]
  MIC-E.Coli (μM) 14028: 20 µM
[7]
  MIC-human (μm) Pseudomonas WT 27853: 5 to 10 µM

## ELLRRLLASLRRHDLLRGPGRELLRLLASLRRHDLLR [Peptide 38P1]
[1]
  MIC-E. coli (μM) 25922: 2.5 to 5 µM

## LIRLIRRILRRGPGRRRLIRRILRIL [Peptide 26P2]
[1]
  MIC-E. coli (μM) 25922: 1.3 to 2.5 µM

## CC[C@H](C)[C@H](NC(=O)[C@H](CCCNC(=N)N)NC(=O)[C@H](CC(C)C)NC(=O)[C@@H](NC(=O)[C@H](CCCNC(=N)N)NC(=O)[C@H](CCCNC(=N)N)NC(=O)[C@@H](NC(=O)[C@H](CC(C)C)NC(=O)[C@H](CCCNC(=N)N)NC(=O)[C@@H](N)CCCNC(=N)N)[C@@H](C)CC)[C@@H](C)CC)C(=O)N[C@@H](CC(C)C)C(=O)NC [Peptide 11P5, RRLIRRILRIL-(NCH3)] (H-RRLIRRILRIL-NHMe; N-terminus and C-terminus assumed)
[1]
  MIC-E. coli (μM) 25922: 6.7 ± 0.9 µM (≈ 9.99 µg/mL)

## RLLEKRLRRELERELRKQGPGRRLLEKRLRRELERELRKQ [Peptide 40P2]
[1]
  MIC-E. coli (μM) 25922: >20 µM

## KEIVRRIEKFLRGPGRKRIVERIEKFLR [Peptide 28P8]
[1]
  MIC-E. coli (μM) 25922: 0.8 ± 0.1 µM
[4]
  MIC-plant (μm) Xylela fastidiosa (grape): 1.25-2.5(2) μM
[11]
  MIC-E.Coli (μM) 14028: 5 to 10 µM
[7]
  MIC-human (μm) Pseudomonas WT 27853: 5 to 10 µM

## CC[C@H](C)[C@H](NC(=O)[C@H](CCCCN)NC(=O)[C@H](CC(C)C)NC(=O)[C@@H]1CSSC[C@H](NC(=O)[C@H](CC(C)C)NC(=O)[C@H](CCCCN)NC(=O)[C@@H](NC(=O)[C@@H](N)CC(C)C)[C@@H](C)CC)C(=O)N[C@@H](CCCCN)C(=O)N[C@@H](CCCCN)C(=O)N[C@@H]([C@@H](C)CC)C(=O)N[C@@H](CC(C)C)C(=O)N[C@@H](CCCCN)C(=O)N[C@@H](CCCCN)C(=O)NCC(=O)N2CCC[C@H]2C(=O)NCC(=O)N[C@@H](CCCNC(=N)N)C(=O)N[C@@H](CCCCN)C(=O)N[C@@H](CCCCN)C(=O)N[C@@H](CC(C)C)C(=O)N[C@@H]([C@@H](C)CC)C(=O)N[C@@H](CCCCN)C(=O)N[C@@H](CCCCN)C(=O)N1)C(=O)N[C@@H](CC(C)C)C(=O)O [CYS26P] (H-LIKLCKKILKKGPGRKKLIKKCLKIL-OH; disulfide 5-22)
[1]
  MIC-E. coli (μM) 25922: 4.3 ± 0.4 µM (≈ 12.9 µg/mL)
[4]
  MIC (μM) X. fastidiosa (PD strain): >20 µM
[6]; Table 9 upper part, c5
  MIC-human bacteria (μM) Salmonella: >20 µM
[7]; Table 9 upper part, c6
  MIC-human bacteria (μM) Pseudomonas WT: >20 µM
[12]
  toxicity to human erythrocytes: did not demonstrate toxicity
[13]
  toxicity to HL60 cells: did not demonstrate toxicity
[14]
  phytotoxicity, viability of N. benthamiana mesophyll protoplasts: low phytotoxcicity

## HPLIKLIKKILKKGPGRKKLIKKILKILGH [Peptide 30P1]
[1]
  MIC-E. coli (μM) 25922: 0.9 to 1.25 µM

## KKLIKKILKILGPGRKKLIKEILKILGPGRKKLIKKILKIL [Peptide 41P1]
[1]
  MIC-E. coli (μM) 25922: 4.50 ± 0.25 µM

## LIKLIKKILKKGPGRKKLIKKILKIL [Peptide P26]
[1]; Table 3, ATCC-WT
  MIC: 1.65 ± 0.3 µM
[1]
  MIC-E. coli (μM) 25922: 1.7 ± 0.2 µM
[2]
  MIC: 9.5 ± 0.7 µM
[15]
  MIC: 1.65 ± 0.3 µM
[16]
  MIC: 4.0 ± 0.6 µM
[17]
  MIC: 1.95 ± 0.3 µM
[3]; BL21
  MIC: 4.4 ± 0.3 µM
[4]
  MIC (μM) X. fastidiosa (PD strain): 4.75 ± 0.25 µM
  MIC-plant bacteria (μM) Xylela fastidiosa (grape): >20 µM
[12]
  toxicity to human erythrocytes: did not demonstrate toxicity
[13]
  toxicity to HL60 cells: did not demonstrate toxicity
[14]
  phytotoxicity, viability of N. benthamiana mesophyll protoplasts: low phytotoxcicity

## KRIVQRIKDFLRGPGRKRIVQRIKDFLR [Peptide 28P2]
[1]
  MIC-E. coli (μM) 25922: 6 (2) μM
  MIC-E.Coli (μM) 25622: 6(2) μM
[18]
  MIC against one E. coli strain: 6 µM
  MICs for human and plant bacteria: 1.3 to 3 µM
[19]
  concentration toxic to human cells: above 20 μM
